Measured values published in US8802660B2, “De novo synthesis of glucocorticoids in the epidermis and its uses and applications” (New York University, priority 2007, dated 2014).

Legend:
[1] = tested on: primary human keratinocytes; assay: ELISA assay for cortisol in medium of cultured keratinocytes; type: cell-based; settings: for effect on cortisol production (in words) / induction of cortisol levels / cortisol production: keratinocytes; for effect on cortisol production (in words): 24 hours, metyrapone 200 μM; for induction of cortisol levels / cortisol production: after 24 hours, ACTH 0.1 μM, progesterone 1 μM
Procedure: Normal human epidermal keratinocytes were initiated using 3T3 feeder layers as previously described (Randolph and Simon (1993) J. Biol. Chem. 268(13):9198-9205) and frozen in liquid nitrogen until use. Once thawed, the keratinocytes were grown without feeder cells in defined serum-free keratinocyte medium supplemented with epidermal growth factor and bovine pituitary extract (keratinocyte-SFM, GIBCO, Carlsbad, Calif.). Cells were expanded through two 1:4 passages before they were grown to 80% confluency. Cells were washed several times with 1×PBS before they were incubated with basal keratinocyte medium (GIBCO) custom made without hydrocortisone and thyroid hormone.
(§1) Cells were cultured to 80% of confluency as described above in Example 1(C). 200 μl of the medium was collected at 0, 6, 12, 24, and 48 hours after the switch to basal medium, and cortisol production was measured using ELISA kit (R & D Systems, Minneapolis, Minn.) following commercial protocol.
(§2) To further confirm that keratinocytes produce glucocorticoids de novo, medium was collected from cultured cells grown in the minimal medium in the absence of any alternative GC source as described in Example 1(C). Cortisol production was measured after 0, 6, 12, 24, and 48 hours using the ELISA assay described in Example 1(E). To confirm the production in tissue, the production of cortisol released from skin in explant cultures was measured. As shown in FIG. 3(B), 11.1 ng/ml of cortisol was released by the skin.
(§3) Cortisol production was measured after 24 hours using the ELISA assay described in Example 1(E). […] The addition of 1 μM of progesterone as a substrate for glucocorticoid synthesis lead to a 2.5 fold induction in cortisol production in both cells and skin (FIG. 7B). The addition of 200 μM metyrapone (Sigma) decreased endogenous levels of cortisol production (FIG. 7B).
(§4) To determine if injury-related molecules affect cortisol synthesis, IL-1 or IGF-1 was added to keratinocytes cultured as described in Example 1(C) or skin explants. IL-1 is a primary injury-response pro-inflammatory signal whereas IGF-1 is known to modulate glucocorticoid metabolism (Rappolee et al. (1988) Science 241:708-12). ACTH was used as a positive control. Cortisol levels were measured 24 hours post-treatment using the ELISA assay described in Example 1(E). […] In contract, IGF-1 inhibited cortisol production in both treated cells and tissue (FIG. 8(A)).

[2] = tested on: skin explant cultures; assay: ELISA assay for cortisol released from skin explant cultures; type: cell-based, human; settings: for effect on cortisol production (in words): 24 hours, metyrapone 200 μM; for induction of cortisol levels / cortisol production: after 24 hours, ACTH 0.1 μM, progesterone 1 μM
Procedure: as §1, §2
as §3, with “A further experiment was performed where prior to measurement both the keratinocytes and the skin explant cultures were stimulated with 0.1 μM of ACTH. Cortisol” for “Cortisol”
as §4

[3] = tested on: CYP11B1; assay: RT-PCR of CYP11B1 expression in treated keratinocytes; type: cell-based, human
Procedure: RNA isolation and purification was performed using Triazol (Invitrogen, Carlsbad, Calif.) extraction and subsequent Qiagen RNeasy Kit column purification (Qiagen, Alameda, Calif.). Reverse transcription and amplification were performed using primers CYP11B1 fw GCTAGACATAGGGGCTCC (SEQ ID no. 1), CYP11B1-rev AGGTGTTTCAGCACATGG (SEQ ID no. 2)and Access RT-PCR Kit (Promega, Madison, Wis.) as follows: (a) reverse transcription—1 cycle at 48° C. for 45 minutes; (b) AMV RT inactivation and RNA/cDNA primer denaturation—1 cycle at 94° C. for 2 minutes; (c) second strand cDNA synthesis and PCR amplification—35 cycles: denaturation for 30 seconds, annealing at 51° C. for 1 minute and extension at 68° C. for 2 minutes; and (d) final extension—1 cycle at 68° C. for 7 minutes. Samples were separated by electrophoresis on 2% agarose gels containing 0.5 μg/ml of ethidium bromide and visualized under UV light.
To elucidate the possible mechanism of regulation involved in these observations, the expression of CYP11B1 was measured using RT-PCR as described in Example 1(G). The expression levels of CYP11B1 corresponded to the cortisol production. IL-1 induced the expression of CYP11B1 similar to ACTH, whereas IGF-1 inhibited its expression (FIG. 8(B)).

[4] = tested on: acute wounds in human skin specimens; assay: Epithelialization in acute wounding model of human skin (histology); settings: topical; air-liquid interface for 6 days; metyrapone 200 μM
Source text: Human skin specimens were obtained from discarded tissue in reduction mammoplasty following approved Hospital for Special Surgery protocol (#25121). Preparation of tissue with acute wounds was done as previously described (Tomic-Canic et al. (2007) Wound Repair Regen. 15(1):71-9); Stojadinovic et al. (2005) Am. J. Pathol. 167(1):59-69). The adipose tissue was removed, and circular templates of skin were generated using a 6 mm biopsy punch. A 3 mm biopsy punch was used to create an acute wound. The skin specimens were maintained at the air-liquid interface with DMEM (BioWhittaker, Walkersville, Md.) with antibiotics-antimycotics, and fetal bovine serum (FBS) (Gemini Bio-Products, Woodland, Calif.) for 0, 4, 48, and 96 hours in the presence or absence of 1 μM dexamethasone (Sigma, St. Louis, Mo.). Acute wounds were fixed in 4% paraformaldehyde (Sigma) at room temperature overnight, dehydrated with ethanol, cleared in chloroform, and embedded in paraffin.
The effect of glucocorticoids on epithelialization was tested using the acute wounding model described in Example 1(A). The wounded skin was maintained at the air-liquid interface for 6 days. Wounds were maintained in the presence or absence of clobetasol propionate (routinely used by dermatologists in the treatment of inflammatory skin disorders). Healing rates was determined by histology. […]

[5] = tested on: glucocorticoid receptor; assay: Immunohistochemistry of phosphorylated (hormone-activated) GR in acute wound sections; parameters: species or system human; settings: treated acute wound samples
Source text: Human skin specimens were obtained from discarded tissue in reduction mammoplasty following approved Hospital for Special Surgery protocol (#25121). […] The adipose tissue was removed, and circular templates of skin were generated using a 6 mm biopsy punch. A 3 mm biopsy punch was used to create an acute wound. […] Acute wounds were fixed in 4% paraformaldehyde (Sigma) at room temperature overnight, dehydrated with ethanol, cleared in chloroform, and embedded in paraffin.
Six μm tissue sections were serially cut on a microtome (HM 315, Carl Zeiss, New York, N.Y.) and mounted on slides. Sections were dewaxed in xylene, re-hydrated and washed with 1× phosphate buffered saline (PBS). For antigen retrieval, paraffin sections were heated in a 95° C. water bath in Target Retrieval Solution (DAKO Corporation, Carpinteria, Calif.). Histological slides were treated with 3% H2O2/30% MeOH for 30 minutes, rinsed with water, and blocked with normal rabbit serum for 30 minutes (Vectastatin Kit Elite ABC, Vectorlabs, Burlingame, Calif.). […] Sections were analyzed using a Carl Zeiss microscope. […]

[6] = tested on: c-myc; assay: Northern Blot and Western Blot of c-myc in keratinocytes and tissue; type: cell-based, human
Procedure: Keratinocytes were grown to 80% confluency, switched to the basal media for 24 hours, and incubated with 1 mM dexamethasone (Sigma) for 24 and 48 hours. Cells were harvested by trypsinization and cytoplasmic and nuclear fractions were obtained using Nuclear Extract Kit (Active Motif, Carlsbad, Calif.) following commercial protocol. 15 μg of each fraction was separated on a 10% SDS-PAGE gel. The proteins were then transferred to a nitrocellulose membrane (Protran®, Bioscience, Dassel, Germany) using the semi-dry transfer system (BioRad, Hercules, Calif.). Ponceau S was used to check the efficiency of the transfer. […] The membrane was washed 3 times for 5 minutes in TTBS and then incubated at 4° C. overnight with GR antibody (1:500) (Affinity Bioreagents) followed with horseradish […] (HRP) conjugated to anti-rabbit secondary antibody (1:1000) (Santa Cruz Biotech, Santa Cruz, Calif.). Immune complexes were visualized using Super Signal West Pico Chemiluminescent substrate (Pierce, Rockford, Ill.). Immunoblot was exposed on x-ray film (HyBlot CL, Denville, N.J.) according to manufacturer's instruction.
It was also found by Northern Blot analysis using acute wound tissue that c-myc was induced at 96 hours post-wounding (FIG. 11(B)).
Using Western Blot analysis, it was shown that protein levels of c-myc were induced by exogenous glucocorticoid and blocked by metyrapone (FIG. 11(C)).

[7] = tested on: β-catenin; assay: Immunohistochemistry of phosphorylated β-catenin in chronic wound biopsies (diabetic foot ulcers); parameters: species or system human; settings: topically applied to chronic wound biopsies
Procedure: Chronic wound tissue was obtained from discarded tissue of biopsies of consenting patients having surgical debridement using approved Columbia University protocol.
Slides were counterstained with hematoxylin. […] Sections were analyzed using a Carl Zeiss microscope. Digital images were taken with Adobe TWAIN—32 program.
It has been previously reported that β-catenin and c-myc participate in inhibition of wound healing and contribute to the impairment of healing in chronic wounds. […] To test if endogenous glucocorticoid participates in β-catenin activation in patients with chronic wounds, metyrapone was topically applied to chronic wound biopsies from patients with diabetic foot ulcers (as described in Example 1(A)). The effects were evaluated by measuring phosphorylation and intracellular translocation of β-catenin by immunohistochemistry as described in Example 1(B), except using an antibody targeting phosphorylated (activated) form of β-catenin (Cell Signaling Technology, Danvers, Mass.). […] As also shown in FIG. 12, this effect can be reversed by the addition of an exogenous glucocorticoid.

IGF-1: known to modulate glucocorticoid metabolism
effect on cortisol production (in words) [1]: inhibited
effect on cortisol production (in words) ([2]; skin explants): inhibited
expression of CYP11B1 (RT-PCR) [3]: inhibited

[Ca+2].[Cl-].[Cl-] [CaCl2]
effect on cortisol production in the skin ([2]; increased CaCl2 levels): decrease

CC(=O)[C@H]1CC[C@H]2[C@@H]3CCC4=CC(=O)CC[C@]4(C)[C@H]3CC[C@]12C [progesterone]
induction of cortisol levels / cortisol production [1]: 2.5 fold
induction of cortisol levels / cortisol production ([2]; skin explants): 2.5 fold

CCC(=O)O[C@]1(C(=O)CCl)[C@@H](C)C[C@H]2[C@@H]3CCC4=CC(=O)C=C[C@]4(C)[C@@]3(F)[C@@H](O)C[C@@]21C [clobetasol propionate]
epithelialization / wound closure [4]: completely inhibited epithelialization

adrenocorticotropic hormone (SYSMEHFRWGKPVGKKRRPVKVYPNGAEDESAEAFPLEF; Corticotropin; UniProt P01189 138-176, looked up) [ACTH, stimulates synthesis of glucocorticoid]
induction of cortisol levels ([1]; keratinocytes in culture, 0.1mM of ACTH): 2.7 fold
induction of cortisol levels / cortisol production [1]: 2.7 fold
induction of cortisol levels ([2]; skin explants, 0.1 μM of ACTH): 2.01 fold
induction of cortisol levels / cortisol production ([2]; skin explants): 2.0 fold
expression of CYP11B1 (RT-PCR) [3]: induced

CC(C)(C(=O)c1cccnc1)c1cccnc1 [metyrapone]
effect on cortisol production (in words) [1]: decreased
effect on cortisol production (in words) ([2]; skin explants): decreased
epithelialization / wound closure [4]: complete wound closure
hormone-activated GR in the nucleus (anti-phospho-Ser211 staining) [5]: absence of GR in the nucleus
protein levels of c-myc (Western Blot) [6]: blocked
β-catenin phosphorylation and nuclearization [7]: abolished
